According to patent publication US7462600B2, “Macrolides” (Pfizer Inc, priority 2004, dated 2008):
≈ marks a conversion by molar mass, not a printed value.

Columns and labels:
Type in all cases: cell-based
[1] = tested on: Streptococcus pneumoniae 1175; details: S. pneumoniae 1175 (mefA); microtiter broth dilution
Method in brief: (§1)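 Compounds were first dissolved in DMSO (40 mg/ml stock), then tested by broth dilution in microtiter trays. MICs were interpreted using the 14th Informational Supplement (M100-S14) criteria.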

[2] = tested on: Streptococcus pneumoniae 1095; details: S. pneumoniae 1095 (ermB); microtiter broth dilution
Method in brief: as §1

[3] = tested on: Haemophilus influenzae 1218; assay: MIC, microtiter broth dilution (NCCLS M100-S14), H. influenzae 1218 (susceptible); details: H. influenzae 1218 (susceptible)
Method in brief: as §1

[4] = tested on: Streptococcus pyogenes 1079; assay: MIC, microtiter broth dilution (NCCLS M100-S14), S. pyogenes 1079 (ermB); details: S. pyogenes 1079 (ermB)
Method in brief: as §1

[5] = tested on: Streptococcus pneumoniae 1016; assay: MIC, microtiter broth dilution (NCCLS M100-S14), S. pneumoniae 1016 (susceptible); details: S. pneumoniae 1016 (susceptible)
Method in brief: as §1

## CCC1OC(=O)C(C)C(=O)C(C)C(OC2OC(C)CC(N(C)C)C2O)C(C)(OC)CC(C)C(=O)C(C)C2N(CC3CCN(C(=O)c4cnc5ccccc5c4)C3)C(=O)OC12C (stereo not drawn) [13.10]
[1]
  MIC S. pneumo. 1175: 0.25 µg/mL (≈ 0.294 µM)
[2]
  MIC S. pneumo. 1095: >64.00 µg/mL
[3]
  MIC H. influenzae 1218: 4 µg/mL (≈ 4.7 µM)
[4]
  MIC S. pyogenes 1079: >64.00 µg/mL
[5]
  MIC S. pneumo. 1016: <0.06 µg/mL

## CCC1OC(=O)C(C)C(=O)C(C)C(OC2OC(C)CC(N(C)C)C2O)C(C)(OC)CC(C)C(=O)C(C)C2N(CC3CCN(C(=O)c4cccc5cccnc45)C3)C(=O)OC12C (stereo not drawn) [13.11]
[1]
  MIC S. pneumo. 1175: 4 µg/mL (≈ 4.7 µM)
[2]
  MIC S. pneumo. 1095: 16 µg/mL (≈ 18.8 µM)
[3]
  MIC H. influenzae 1218: 4 µg/mL (≈ 4.7 µM)
[4]
  MIC S. pyogenes 1079: >64.00 µg/mL
[5]
  MIC S. pneumo. 1016: <0.06 µg/mL

## CCC1OC(=O)C(C)C(=O)C(C)C(OC2OC(C)CC(N(C)C)C2O)C(C)(OC)CC(C)C(=O)C(C)C2N(CC3CCN(C(=O)c4ccc5ncccc5c4)C3)C(=O)OC12C (stereo not drawn) [13.12]
[1]
  MIC S. pneumo. 1175: 0.5 µg/mL (≈ 0.588 µM)
[2]
  MIC S. pneumo. 1095: >64.00 µg/mL
[3]
  MIC H. influenzae 1218: 4 µg/mL (≈ 4.7 µM)
[4]
  MIC S. pyogenes 1079: >64.00 µg/mL
[5]
  MIC S. pneumo. 1016: <0.06 µg/mL

## CCC1OC(=O)C(C)C(=O)C(C)C(OC2OC(C)CC(N(C)C)C2O)C(C)(OC)CC(C)C(=O)C(C)C2N(CC3CCN(C(=O)c4cnc5ccccc5n4)C3)C(=O)OC12C (stereo not drawn) [13.13]
[1]
  MIC S. pneumo. 1175: 0.5 µg/mL (≈ 0.587 µM)
[2]
  MIC S. pneumo. 1095: >64.00 µg/mL
[3]
  MIC H. influenzae 1218: 16 µg/mL (≈ 18.8 µM)
[4]
  MIC S. pyogenes 1079: >64.00 µg/mL
[5]
  MIC S. pneumo. 1016: <0.06 µg/mL

## CCC1OC(=O)C(C)C(=O)C(C)C(OC2OC(C)CC(N(C)C)C2O)C(C)(OC)CC(C)C(=O)C(C)C2N(CC3CCN(C(=O)c4cccc5ncsc45)C3)C(=O)OC12C (stereo not drawn) [13.14]
[1]
  MIC S. pneumo. 1175: <0.06 µg/mL
[2]
  MIC S. pneumo. 1095: 2 µg/mL (≈ 2.33 µM)
[3]
  MIC H. influenzae 1218: 1 µg/mL (≈ 1.17 µM)
[4]
  MIC S. pyogenes 1079: >64.00 µg/mL
[5]
  MIC S. pneumo. 1016: <0.06 µg/mL

## CCC1OC(=O)C(C)C(=O)C(C)C(OC2OC(C)CC(N(C)C)C2O)C(C)(OC)CC(C)C(=O)C(C)C2N(CC3CCN(C(=O)c4cc5cccnc5[nH]4)C3)C(=O)OC12C (stereo not drawn) [13.15]
[1]
  MIC S. pneumo. 1175: 0.12 µg/mL (≈ 0.143 µM)
[2]
  MIC S. pneumo. 1095: 2 µg/mL (≈ 2.38 µM)
[3]
  MIC H. influenzae 1218: 4 µg/mL (≈ 4.76 µM)
[4]
  MIC S. pyogenes 1079: >64.00 µg/mL
[5]
  MIC S. pneumo. 1016: <0.06 µg/mL

## CCC1OC(=O)C(C)C(=O)C(C)C(OC2OC(C)CC(N(C)C)C2O)C(C)(OC)CC(C)C(=O)C(C)C2N(CC3CCN(C(=O)c4cc5ccccn5n4)C3)C(=O)OC12C (stereo not drawn) [13.16]
[1]
  MIC S. pneumo. 1175: 1 µg/mL (≈ 1.19 µM)
[2]
  MIC S. pneumo. 1095: >64.00 µg/mL
[3]
  MIC H. influenzae 1218: 16 µg/mL (≈ 19 µM)
[4]
  MIC S. pyogenes 1079: >64.00 µg/mL
[5]
  MIC S. pneumo. 1016: <0.06 µg/mL

## CCC1OC(=O)C(C)C(=O)C(C)C(OC2OC(C)CC(N(C)C)C2O)C(C)(OC)CC(C)C(=O)C(C)C2N(CC3CCN(C(=O)c4cncc5ccccc45)C3)C(=O)OC12C (stereo not drawn) [13.17]
[1]
  MIC S. pneumo. 1175: 0.25 µg/mL (≈ 0.294 µM)
[2]
  MIC S. pneumo. 1095: >64.00 µg/mL
[3]
  MIC H. influenzae 1218: 4 µg/mL (≈ 4.7 µM)
[4]
  MIC S. pyogenes 1079: >64.00 µg/mL
[5]
  MIC S. pneumo. 1016: <0.06 µg/mL

## CCC1OC(=O)C(C)C(=O)C(C)C(OC2OC(C)CC(N(C)C)C2O)C(C)(OC)CC(C)C(=O)C(C)C2N(CC3CCN(Cc4cccc5nccnc45)CC3)C(=O)OC12C (stereo not drawn) [15.01]
[1]
  MIC S. pneumo. 1175: 0.25 µg/mL (≈ 0.293 µM)
[2]
  MIC S. pneumo. 1095: >64.00 µg/mL
[3]
  MIC H. influenzae 1218: 32 µg/mL (≈ 37.6 µM)
[4]
  MIC S. pyogenes 1079: >64.00 µg/mL
[5]
  MIC S. pneumo. 1016: <0.06 µg/mL

## CCC1OC(=O)C(C)C(=O)C(C)C(OC2OC(C)CC(N(C)C)C2O)C(C)(OC)CC(C)C(=O)C(C)C2N(CC3CCN(Cc4ccnc5ccccc45)CC3)C(=O)OC12C (stereo not drawn) [15.02]
[1]
  MIC S. pneumo. 1175: 0.5 µg/mL (≈ 0.587 µM)
[2]
  MIC S. pneumo. 1095: >64.00 µg/mL
[3]
  MIC H. influenzae 1218: 32 µg/mL (≈ 37.6 µM)
[4]
  MIC S. pyogenes 1079: >64.00 µg/mL
[5]
  MIC S. pneumo. 1016: <0.06 µg/mL

## CCC1OC(=O)C(C)C(=O)C(C)C(OC2OC(C)CC(N(C)C)C2O)C(C)(OC)CC(C)C(=O)C(C)C2N(CC3CCN(Cc4cnc5ccccc5c4)CC3)C(=O)OC12C (stereo not drawn) [15.03]
[1]
  MIC S. pneumo. 1175: 0.25 µg/mL (≈ 0.294 µM)
[2]
  MIC S. pneumo. 1095: >64.00 µg/mL
[3]
  MIC H. influenzae 1218: 8 µg/mL (≈ 9.4 µM)
[4]
  MIC S. pyogenes 1079: >64.00 µg/mL
[5]
  MIC S. pneumo. 1016: <0.06 µg/mL

## CCC1OC(=O)C(C)C(=O)C(C)C(OC2OC(C)CC(N(C)C)C2O)C(C)(OC)CC(C)C(=O)C(C)C2N(CC3CCN(Cc4ccc(OC)nc4)CC3)C(=O)OC12C (stereo not drawn) [15.04]
[1]
  MIC S. pneumo. 1175: 0.5 µg/mL (≈ 0.602 µM)
[2]
  MIC S. pneumo. 1095: >64.00 µg/mL
[3]
  MIC H. influenzae 1218: 16 µg/mL (≈ 19.3 µM)
[4]
  MIC S. pyogenes 1079: >64.00 µg/mL
[5]
  MIC S. pneumo. 1016: <0.06 µg/mL
